# Reference: patent US20220378923A1, “BET DEGRADER” (KYOWA KIRIN CO., LTD., priority 2019, published 2022)
# System: SU-DHL-4 cells
# Experiment: Inhibitory effect on cell viability in SU-DHL-4 cell line (Test Example 1)
# Type: cell-based, human
# Settings: Homo sapiens; SU-DHL-4 cells, 72 hours, Cell Counting Kit-8; concentration showing 90% inhibition of cell viability; read-out: SU-DHL-4 Cell Viability Inhibition Rate IC90
# Method in brief: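 SU-DHL-4 cells were grown at 37° C. under 5% CO2 in RPMI1640 with 10 vol % heat-inactivated FBS plus penicillin/streptomycin, seeded and precultured for 18 to 25 hours, then exposed to test compound at 0.1 vol % DMSO for 72 hours. Viability was read with Cell Counting Kit-8 by absorbance at 450 nm.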
row,IC90,SMILES
1,11.1 nM,"CCC(=O)N1c2ccccc2[C@H](Nc2ccc(NC(=O)C3CN(C(=O)c4ccc(OCCN5CCN(C)C(=O)[C@H]5C)cc4)C3)cc2)C[C@@H]1C [Compound 16a, 1-(4-(2-((R)-2,4-Dimethyl-3-oxopiperazin-1-yl)ethoxy)benzoyl)-N-(4-(((2S,4R)-2-methyl-1-propionyl-1,2,3,4-tetrahydroquinolin-4-yl)amino)phenyl)azetidine-3-carboxamide]"
2,2.05 nM,"CCC(=O)N1c2ccccc2[C@H](Nc2ccc(-c3nnc(CNC(=O)c4ccc(OCCN5CCN(C)C(=O)[C@H]5C)cc4)o3)cc2)C[C@@H]1C [Compound 16b, 4-(2-((R)-2,4-Dimethyl-3-oxopiperazin-1-yl)ethoxy)-N-((5-(4-(((2S,4R)-2-methyl-1-propionyl-1,2,3,4-tetrahydroquinolin-4-yl)amino)phenyl)-1,3,4-oxadiazol-2-yl)methyl)benzamide]"
3,0.28 nM,"CCC(=O)N1c2ccccc2[C@H](Nc2ccc(-c3nnc(CNC(=O)N4CCN(Cc5cc(O)cc(-c6c(C)noc6C)c5)CC4)o3)cc2)C[C@@H]1C [Compound 16c, 4-(3-(3,5-Dimethylisoxazol-4-yl)-5-hydroxybenzyl)-N-((5-(4-(((2S,4R)-2-methyl-1-propionyl-1,2,3,4-tetrahydroquinolin-4-yl)amino)phenyl)-1,3,4-oxadiazol-2-yl)methyl)piperazine-1-carboxamide]"
4,0.17 nM,"CCC(=O)N1c2ccccc2[C@H](Nc2ccc(-n3cc(CNC(=O)C4CCN(Cc5cc(O)cc(-c6c(C)noc6C)c5)CC4)nn3)cc2)C[C@@H]1C [Compound 16d, 1-(3-(3,5-Dimethylisoxazol-4-yl)-5-hydroxybenzyl)-N-((1-(4-(((2S,4R)-2-methyl-1-propionyl-1,2,3,4-tetrahydroquinolin-4-yl)amino)phenyl)-1H-1,2,3-triazol-4-yl)methyl)piperidine-4-carboxamide]"
5,5.97 nM,"CCC(=O)N1c2ccccc2[C@H](Nc2ccc(NC(=O)CCCC(=O)Nc3ccc(OCCN4CCN(C)C(=O)[C@H]4C)cc3)cc2)C[C@@H]1C [Compound 16e, N^1-(4-(2-((R)-2,4-Dimethyl-3-oxopiperazin-1-yl)ethoxy)phenyl)-N5-(4-(((2S,4R)-2-methyl-1-propionyl-1,2,3,4-tetrahydroquinolin-4-yl)amino)phenyl)glutaramide]"
6,14.9 nM,"CCC(=O)N1c2ccccc2[C@H](Nc2ccc(NC(=O)CCCC(=O)NC3CC4(C3)CN(Cc3cc(O)cc(-c5c(C)noc5C)c3)C4)cc2)C[C@@H]1C [Compound 16g, N^1-(2-(3-(3,5-Dimethylisoxazol-4-yl)-5-hydroxybenzyl)-2-azaspiro[3.3]heptan-6-yl)-N5-(4-(((2S,4R)-2-methyl-1-propionyl-1,2,3,4-tetrahydroquinolin-4-yl)amino)phenyl)glutaramide]"
7,68.4 nM,"CCC(=O)N1c2ccccc2[C@H](Nc2ccc(NC(=O)CCCC(=O)NC3CCN(Cc4ccccc4-c4cn(C)c(=O)cc4OC)CC3)cc2)C[C@@H]1C [Compound 16h, N^1-(1-(2-(4-Methoxy-1-methyl-6-oxo-1,6-dihydropyridin-3-yl)benzyl)piperidin-4-yl)-N5-(4-(((2S,4R)-2-methyl-1-propionyl-1,2,3,4-tetrahydroquinolin-4-yl)amino)phenyl)glutaramide]"

# Same assay, conditions: SU-DHL-4 cells, 72 hours, Cell Counting Kit-8; concentration showing 90% inhibition of cell viability; read-out: SU-DHL-4 Cell Viability Inhibition Rate IC90
row,IC90,SMILES
1,15 nM,"CCC(=O)N1c2ccccc2[C@H](Nc2ccc(C(=O)N3C[C@H]4C[C@@H]3CN4C(=O)[C@H]3CC[C@H](N[C@@H]4C[C@H](C)N(C(=O)CC)c5ccccc54)CC3)cc2)C[C@@H]1C [Compound 8p, 1-((2S,4R)-2-Methyl-4-(((1R,4R)-4-((1R,4R)-5-(4-(((2S,4R)-2-methyl-1-propionyl-1,2,3,4-tetrahydroquinolin-4-yl)amino)benzoyl)-2,5-diazabicyclo[2.2.1]heptane-2-carbonyl)cyclohexyl)amino)-3,4-dihydroquinolin-1(2H)-yl)propan-1-one]"
2,7.16 nM,"CCC(=O)N1c2ccccc2[C@H](Nc2ccc(NC(=O)NC3CN(C(=O)C4CCC(N[C@@H]5C[C@H](C)N(C(=O)CC)c6ccccc65)CC4)C3)cc2)C[C@@H]1C (stereo partly drawn) [Compound 9h, 1-(1-((1R,4r)-4-(((2S,4R)-2-Methyl-1-propionyl-1,2,3,4-tetrahydroquinolin-4-yl)amino)cyclohexane-1-carbonyl)azetidin-3-yl)-3-(4-(((2S,4R)-2-methyl-1-propionyl-1,2,3,4-tetrahydroquinolin-4-yl)amino)phenyl)urea]"
3,3.5 nM,"CCC(=O)N1c2ccccc2[C@H](Nc2ccc(C(=O)NC3CN(C(=O)c4ccc(C5=N[C@@H](CC(=O)OCCN(C)C)c6nnc(C)n6-c6sc(C)c(C)c65)cc4)C3)cc2)C[C@@H]1C [Compound 13b, 2-(Dimethylamino)ethyl 2-((S)-2,3,9-trimethyl-4-(4-(3-(4-(((2S,4R)-2-methyl-1-propionyl-1,2,3,4-tetrahydroquinolin-4-yl)amino)benzamide)azetidine-1-carbonyl)phenyl)-6H-thieno[3,2-f][1,2,4]triazolo[4,3-a][1,4]diazepin-6-yl)acetate]"
4,7.36 nM,"CCC(=O)N1c2ccccc2[C@H](Nc2ccc(C(=O)NCCCNC(=O)c3ccc(C4=N[C@@H](CC(=O)OCCN(C)C)c5nnc(C)n5-c5sc(C)c(C)c54)cc3)cc2)C[C@@H]1C [Compound 13c, 2-(Dimethylamino)ethyl 2-((S)-2,3,9-trimethyl-4-(4-((3-(4-(((2S,4R)-2-methyl-1-propionyl-1,2,3,4-tetrahydroquinolin-4-yl)amino)benzamide)propyl)carbamoyl)phenyl)-6H-thieno[3,2-f][1,2,4]triazolo[4,3-a][1,4]diazepin-6-yl)acetate]"
5,3.33 nM,"CCNC(=O)C[C@@H]1N=C(c2ccc(C(=O)NCCCNC(=O)c3ccc(N[C@@H]4C[C@H](C)N(C(=O)CC)c5ccccc54)cc3)cc2)c2c(sc(C)c2C)-n2c(C)nnc21 [Compound 13e, 4-((S)-6-(2-(Ethylamino)-2-oxoethyl)-2,3,9-trimethyl-6H-thieno[3,2-f][1,2,4]triazolo[4,3-a][1,4]diazepin-4-yl)-N-(3-(4-(((2S,4R)-2-methyl-1-propionyl-1,2,3,4-tetrahydroquinolin-4-yl)amino)benzamide)propyl)benzamide]"
6,11.6 nM,"CCC(=O)N1c2ccccc2[C@H](Nc2ccc(C(=O)NCCCNC(=O)c3ccc(C4=N[C@@H](CC(=O)N5CCN(CCO)CC5)c5nnc(C)n5-c5sc(C)c(C)c54)cc3)cc2)C[C@@H]1C [Compound 13f, 4-((S)-6-(2-(4-(2-Hydroxyethyl)piperazin-1-yl)-2-oxoethyl)-2,3,9-trimethyl-6H-thieno[3,2-f][1,2,4]triazolo[4,3-a][1,4]diazepin-4-yl)-N-(3-(4-(((2S,4R)-2-methyl-1-propionyl-1,2,3,4-tetrahydroquinolin-4-yl)amino)benzamide)propyl)benzamide]"
7,1.7 nM,"CCC(=O)N1c2ccccc2[C@H](Nc2ccc(C(=O)NCCCNC(=O)c3ccc(C4=N[C@@H](CC(=O)OCCO)c5nnc(C)n5-c5sc(C)c(C)c54)cc3)cc2)C[C@@H]1C [Compound 13g, 2-Hydroxyethyl 2-((S)-2,3,9-trimethyl-4-(4-((3-(4-(((2S,4R)-2-methyl-1-propionyl-1,2,3,4-tetrahydroquinolin-4-yl)amino)benzamide)propyl)carbamoyl)phenyl)-6H-thieno[3,2-f][1,2,4]triazolo[4,3-a][1,4]diazepin-6-yl)acetate]"
8,0.6 nM,"CCC(=O)N1c2ccccc2[C@H](Nc2ccc(C(=O)NCC(=O)CNC(=O)c3ccc(C4=NCc5nnc(C)n5-c5sc(C)c(C)c54)cc3)cc2)C[C@@H]1C [Compound 14l, 4-(((2S,4R)-2-Methyl-1-propionyl-1,2,3,4-tetrahydroquinolin-4-yl)amino)-N-(2-oxo-3-(4-(2,3,9-trimethyl-6H-thieno[3,2-f][1,2,4]triazolo[4,3-a][1,4]diazepin-4-yl)benzamide)propyl)benzamide]"
9,34 nM,"CCC(=O)N1c2ccccc2[C@H](Nc2ccc(C(=O)NCCCNC(=O)c3ccc(Cn4c(C(=O)OCCN(C)C)cc5c4CCCC5=O)cc3)cc2)C[C@@H]1C [Compound 15e, 2-(Dimethylamino)ethyl 1-(4-((3-(4-(((2S,4R)-2-methyl-1-propionyl-1,2,3,4-tetrahydroquinolin-4-yl)amino)benzamide)propyl)carbamoyl)benzyl)-4-oxo-4,5,6,7-tetrahydro-1H-indole-2-carboxylate]"
10,5.03 nM,"CCC(=O)N1c2ccccc2[C@H](Nc2ccc(C(=O)NCCCNC(=O)c3ccc(Cn4c(C(=O)OC)cc5c4CCCC5=O)cc3)cc2)C[C@@H]1C [Compound 15g, Methyl 1-(4-((3-(4-(((2S,4R)-2-methyl-1-propionyl-1,2,3,4-tetrahydroquinolin-4-yl)amino)benzamide)propyl)carbamoyl)benzyl)-4-oxo-4,5,6,7-tetrahydro-1H-indole-2-carboxylate]"
11,0.88 nM,CCC(=O)N1c2ccccc2[C@H](Nc2ccc(NC(=O)CCCC(=O)Nc3ccc(Cn4c(CC)cc5c4CCCC5=O)cc3)cc2)C[C@@H]1C [Compound 15i]
12,24.6 nM,"CCC(=O)N1c2ccccc2[C@H](Nc2ccc(NC(=O)CCCC(=O)NC3CCCN(Cc4ccc(NS(=O)(=O)CC)cc4-c4cn(C)c(=O)cc4OC)C3)cc2)C[C@@H]1C (stereo partly drawn) [Compound 16f, N^1-(1-(4-(Ethylsulfonamide)-2-(4-methoxy-1-methyl-6-oxo-1,6-dihydropyridin-3-yl)benzyl)piperidin-3-yl)-N5-(4-(((2S,4R)-2-methyl-1-propionyl-1,2,3,4-tetrahydroquinolin-4-yl)amino)phenyl)glutaramide]"

row,SMILES,IC90
1,"CCC(=O)N1c2ccccc2[C@H](Nc2ccc(C(=O)NC3CCN(C(=O)c4ccc(C5=N[C@@H](CC(=O)OC(C)(C)C)c6nnc(C)n6-c6sc(C)c(C)c65)cc4)CC3)cc2)C[C@@H]1C [Compound 13j, tert-Butyl 2-((S)-2,3,9-trimethyl-4-(4-(4-(4-(((2S,4R)-2-methyl-1-propionyl-1,2,3,4-tetrahydroquinolin-4-yl)amino)benzamide)piperidine-1-carbonyl)phenyl)-6H-thieno[3,2-f][1,2,4]triazolo[4,3-a][1,4]diazepin-6-yl)acetate]",0.31 nM
